Legend:
Erysiphe polygoni = experiment: Powdery mildew on pinto bean, foliar application (ERY POL); type: in vivo; conditions: similar procedure as barley (1,000 mg/l); for pest or weed control at 1000 µg/mL: Erysiphe polygoni, read-out: Percent Reduction of Disease, ERY POL
Description: (§1) Compositions containing Compounds Nos. 1-81 were prepared by dissolving 0.24 grams of each of the compounds in 8 ml of acetone or other suitable inert solvent. Each of the resultant solutions was treated with 3 drops of TWEEN 20 (ethoxylated ethylene sorbitan monolaurate, a non-ionic surfactant)(I.C.I.), and water was added to form an emulsion. The degree of dilution with water was dictated by the desired concentration of the compound in the composition. The greater the quantity of water added, the lower the concentration of the compound in the composition, reported in milligrams per liter (mg/l) Ten plants of "Robust" variety barley were planted in each of a plurality of pots. Each pot was then either sprayed with one of the compositions of Example 9, at a composition concentration of 1,000 mg/l, or left unsprayed. For each pot sprayed, one pot was left unsprayed as a control. After the leaves of the sprayed pots were dried, the sprayed pots and the unsprayed control pots were placed in a greenhouse maintained at 21° C. All the pots were then inoculated with barley powdery mildew fungus, Erysiphe graminis. This inoculation was accomplished by distributing spores of the fungus over the leaves of the plants to be tested from plants which had previously been infected with the mildew disease. […] Again, percent control was computed by comparing the treatment scores with the scores of the untreated controls. The results are summarized in Table II under the heading "ERY GRA". Using a similar procedure as described above for the barley, pinto bean plants were prepared, treated and inoculated with the fungus Erysiphe polygoni. The results of this testing are summarized in Table II under the heading "ERY POL".

Erysiphe cichoracearum = experiment: Powdery mildew of cucumber, systemic root uptake (CMS); type: in vivo; conditions: 45 ml of 250 mg/l, 8 days after inoculation
Description: (§2) Compositions containing Compounds Nos. 1-81 were prepared by dissolving 0.24 grams of each of the compounds in 8 ml of acetone or other suitable inert solvent. Each of the resultant solutions was treated with 3 drops of TWEEN 20 (ethoxylated ethylene sorbitan monolaurate, a non-ionic surfactant)(I.C.I.), and water was added to form an emulsion. The degree of dilution with water was dictated by the desired concentration of the compound in the composition. The greater the quantity of water added, the lower the concentration of the compound in the composition, reported in milligrams per liter (mg/l) […] Upon reaching these ages, the plants were either treated with 45 ml of 250 mg/l concentration of the compositions of Example 9 or were left untreated. The untreated plants were used as controls. The 45 ml compositions saturated the soil of the treated pots without significant loss through drainage into the saucers below the pots. Twenty-four hours after the treatment with the compositions, both the barley and cucumber plants in all the pots, those treated and those untreated, were inoculated with powdery mildew fungus. This was accomplished by tapping leaves of previously infected barley and cucumber plants over the treated and untreated pots containing the barley and cucumber plants, respectively, to distribute spores of the fungus over the plants tested. […] Intermediate ratings were assigned depending on the degree of disease. […] The results of the powdery mildew disease control of barley are reported under the heading of "BMS". The results for cucumber mildew control are reported under the heading "CMS".

Erysiphe graminis [1] = experiment: Powdery mildew of barley, systemic root uptake (BMS); type: in vivo; conditions: 45 ml of 250 mg/l, 8 days after inoculation
Description: as §2

Septoria nodorum = experiment: Fungal growth inhibition, treated disc on agar (SEP NOD); type: cell-based; conditions: disc dipped in 500 mg/l, 29° C.; for inhibition at 500 µg/mL: Parastagonospora nodorum, read-out: Percent Growth Inhibition, SEP NOD
Uromyces phaseoli = experiment: Bean rust fungus eradicant test (URO PHA); type: in vivo; conditions: pinto bean, eradicant spray 2 days after inoculation, 1,000 mg/l; for pest or weed control at 1000 µg/mL: Uromyces phaseoli, 216 h, read-out: Percent Reduction of Disease, URO PHA
Description: Compositions containing Compounds Nos. 1-81 were prepared by dissolving 0.24 grams of each of the compounds in 8 ml of acetone or other suitable inert solvent. Each of the resultant solutions was treated with 3 drops of TWEEN 20 (ethoxylated ethylene sorbitan monolaurate, a non-ionic surfactant)(I.C.I.), and water was added to form an emulsion. The degree of dilution with water was dictated by the desired concentration of the compound in the composition. The greater the quantity of water added, the lower the concentration of the compound in the composition, reported in milligrams per liter (mg/l) A plurality of pots were each planted with two pinto bean plants, Phaseolus vulgaris, each, susceptible to rust disease. When the plants were 7 days old, at the primary leaf stage of growth, they were all sprayed with a suspension containing 20,000 spores of the bean rust fungus, Uromyces phaseoli, per ml. All the pots were then incubated in a controlled environmental chamber, maintained at 99% humidity and 21° C., for 24 hours to allow infection to occur. The plants were then removed from the incubator and allowed to dry. Two days after inoculation each of the infected plants was then either sprayed with one of the compositions of Example 9, at a dosage of 1,000 mg/l, or left unsprayed. The unsprayed plants acted as controls. All of the sprayed and unsprayed plants were then placed in a greenhouse at 21° C. for nine days to allow the disease to develop. […] Control of disease was determined by comparing treated plants with the untreated controls. The results, expressed as percent reduction of disease, are summarized in Table II under the heading "URO PHA".

Rhizoctonia solani = experiment: Fungal growth inhibition, treated disc on agar (RHI SOL); type: cell-based; conditions: disc dipped in 500 mg/l, 29° C.; for inhibition at 500 µg/mL: Rhizoctonia solani, read-out: Percent Growth Inhibition, RHI SOL
Description: Filter paper discs, each 11 mm. in diameter, were dipped in each of the test solutions. The discs were allowed to air dry to drive off the acetone solvent. A number of untreated discs were used as controls.
The treated and untreated discs were then placed on agar plates and one of the following fungus species: Septoria nodorum (SEP NOD), Botrytis cinerea (BOT CIN), Fusarium oxysporum (FUS OXY), Pythium ultimum (PYT ULT), Rhizoctonia solani (RHI SOL), Colletotrichum gossypii (COL GOS), and Scierotinia minor (SCL MIN), was added to the center of each disc in the form of a culture plug with the fungus mat in contact with the paper of the test disc. Cercosporidium personatum (CER PER), was added to discs as a spore suspension (20,000 spores/ml) to the disc (two drops of spore suspension per disc), rather than a mycelial culture plug. The plates were then incubated at 29° C. in an oven.
With the exception of the discs containing Cercosporidium personatum, the discs were evaluated by first measuring the radius from the center of the fungus colony on the treated discs and on the untreated discs. Percent growth inhibition of each of the compounds tested was determined as a function of the difference between the radius of the fungus colony on the treated disc versus the radius of the fungus colony on the untreated disc.

Fusarium oxysporum = experiment: Fungal growth inhibition, treated disc on agar (FUS OXY); type: cell-based; conditions: disc dipped in 500 mg/l, 29° C.; for inhibition at 500 µg/mL: Fusarium oxysporum, read-out: Percent Growth Inhibition, FUS OXY
Erysiphe graminis [2] = experiment: Powdery mildew in barley, foliar application (ERY GRA); type: in vivo; conditions: foliar, 1,000 mg/l, 8 days after inoculation; for pest or weed control at 1000 µg/mL: Blumeria graminis, foliar, 192 h, read-out: Percent Reduction of Disease, ERY GRA
Description: as §1, with “GRA".” for “GRA". Using a similar procedure as described above for the barley, pinto bean plants were prepared, treated and inoculated with the fungus Erysiphe polygoni. The results of this testing are summarized in Table II under the heading "ERY POL".”

In the case of CCCC(C#N)(CCc1ccccc1C(F)(F)F)c1cccnc1 (centres unmarked) [Compound 72], the pest or weed control at 1000 µg/mL (Erysiphe polygoni) was 92%, the “Percent Reduction of Disease, CMS” value (Erysiphe cichoracearum) was 80% and the “Percent Reduction of Disease, BMS” value (Erysiphe graminis [1]) was 90%. The inhibition at 500 µg/mL (Septoria nodorum) was 100%, the pest or weed control at 1000 µg/mL (Uromyces phaseoli) was 0% and the inhibition at 500 µg/mL (Rhizoctonia solani) was 38%. The inhibition at 500 µg/mL (Fusarium oxysporum) was 16% and the pest or weed control at 1000 µg/mL (Erysiphe graminis [2]) was 100%.

In the case of N#CC(CCc1ccccc1)(CCc1ccccc1)c1cccnc1 [A, reference compound], the pest or weed control at 1000 µg/mL (Erysiphe polygoni) was 15%, the “Percent Reduction of Disease, CMS” value (Erysiphe cichoracearum) was 50% and the “Percent Reduction of Disease, BMS” value (Erysiphe graminis [1]) was 15%. For the same compound, the inhibition at 500 µg/mL (Septoria nodorum) was 0%, the pest or weed control at 1000 µg/mL (Uromyces phaseoli) was 0% and the inhibition at 500 µg/mL (Rhizoctonia solani) was 10%. For the same compound, the inhibition at 500 µg/mL (Fusarium oxysporum) was 10% and the pest or weed control at 1000 µg/mL (Erysiphe graminis [2]) was 0%.

With C=CCC(C#N)(CCc1ccc(OC)cc1)c1ccccn1 (centres unmarked) [Compound 28] the “Percent Reduction of Disease, ERY POL” value (Erysiphe polygoni) was 100%, the “Percent Reduction of Disease, CMS” value (Erysiphe cichoracearum) was 0% and the “Percent Reduction of Disease, BMS” value (Erysiphe graminis [1]) was 0%. For the same compound, the “Percent Growth Inhibition, SEP NOD” value (Septoria nodorum) was 96%, the “Percent Reduction of Disease, URO PHA” value (Uromyces phaseoli) was 100% and the “Percent Growth Inhibition, RHI SOL” value (Rhizoctonia solani) was 60%. For the same compound, the “Percent Growth Inhibition, FUS OXY” value (Fusarium oxysporum) was 100% and the “Percent Reduction of Disease, ERY GRA” value (Erysiphe graminis [2]) was 90%.

With CCCCCC(C#N)(CCc1ccccc1)c1cccnc1 (centres unmarked) [Compound 3] the pest or weed control at 1000 µg/mL (Erysiphe polygoni) was 100%, the “Percent Reduction of Disease, CMS” value (Erysiphe cichoracearum) was 35% and the “Percent Reduction of Disease, BMS” value (Erysiphe graminis [1]) was 35%. It also gave an inhibition at 500 µg/mL (Septoria nodorum) of 86%, a pest or weed control at 1000 µg/mL (Uromyces phaseoli) of 100% and an inhibition at 500 µg/mL (Rhizoctonia solani) of 10%. It also gave an inhibition at 500 µg/mL (Fusarium oxysporum) of 0% and a pest or weed control at 1000 µg/mL (Erysiphe graminis [2]) of 100%.

CCCCC(C#N)(CCc1ccc(OC)cc1)c1ccccn1 (centres unmarked) [Compound 31] was tested, and the “Percent Reduction of Disease, ERY POL” value (Erysiphe polygoni) was 90%, the “Percent Reduction of Disease, CMS” value (Erysiphe cichoracearum) was 0% and the “Percent Reduction of Disease, BMS” value (Erysiphe graminis [1]) was 0%. For the same compound, the “Percent Growth Inhibition, SEP NOD” value (Septoria nodorum) was 81%, the “Percent Reduction of Disease, URO PHA” value (Uromyces phaseoli) was 35% and the “Percent Growth Inhibition, RHI SOL” value (Rhizoctonia solani) was 5%. For the same compound, the “Percent Growth Inhibition, FUS OXY” value (Fusarium oxysporum) was 83% and the “Percent Reduction of Disease, ERY GRA” value (Erysiphe graminis [2]) was 20%.

For COc1ccc(CCC(C#N)(CC=C(C)C)c2cccnc2)cc1 (centres unmarked) [Compound 48], the pest or weed control at 1000 µg/mL (Erysiphe polygoni) was 90%, the “Percent Reduction of Disease, CMS” value (Erysiphe cichoracearum) was 0% and the “Percent Reduction of Disease, BMS” value (Erysiphe graminis [1]) was 0%. For the same compound, the inhibition at 500 µg/mL (Septoria nodorum) was 100%, the pest or weed control at 1000 µg/mL (Uromyces phaseoli) was 83% and the inhibition at 500 µg/mL (Rhizoctonia solani) was 28%. It also gave an inhibition at 500 µg/mL (Fusarium oxysporum) of 100% and a pest or weed control at 1000 µg/mL (Erysiphe graminis [2]) of 67%.

In the case of CCCCCCCC(C#N)(CCc1ccccc1)c1cccnc1 (centres unmarked) [Compound 2], the pest or weed control at 1000 µg/mL (Erysiphe polygoni) was 100%, the “Percent Reduction of Disease, CMS” value (Erysiphe cichoracearum) was 0% and the “Percent Reduction of Disease, BMS” value (Erysiphe graminis [1]) was 0%. For the same compound, the inhibition at 500 µg/mL (Septoria nodorum) was 0%, the pest or weed control at 1000 µg/mL (Uromyces phaseoli) was 97% and the inhibition at 500 µg/mL (Rhizoctonia solani) was 0%. The inhibition at 500 µg/mL (Fusarium oxysporum) was 30% and the pest or weed control at 1000 µg/mL (Erysiphe graminis [2]) was 100%.
